Experimental data reported in paper PMC9321647, “Curcumin-Based β-Diketo Ligands for Ga^3+: Thermodynamic Investigation of Potential Metal-Based Drugs” (Pharmaceuticals, 2022).
Where two headings read alike, the source gives them in different places. Marks after values point to notes of the source that are not given here.

Experiments:
[1] = system: HCT116 colon carcinoma cells; test: MTT cell viability assay; assay type: cell-based, Human; conditions: Homo sapiens, HCT-116, HCT116, 48 h of treatment, mean
Procedure: Human colorectal carcinoma HCT116 cells (#91091005, ECACC) were grown in an IMDM medium (Biowest) supplemented with 2 mM glutamine, 100 IU/mL penicillin, 100 μg/mL streptomycin and 10% FBS (Gibco). The cell lines were grown at 37 °C in a humidified incubator containing 5% CO2. The cells were verified to be mycoplasma-free and passaged < 3 months. The inhibition of cell proliferation was measured by colorimetric 3-(4,5-dimethylthiazol-2-yl)-2,5-diphenyltetrazolium bromide (MTT) assay. GI50 concentrations were determined using the CompuSyn software version 1.0 (ComboSyn, Inc., Paramus, NJ USA) (free download via www.combosyn.com, accessed on 30 May 2022), and statistical analyses were performed using the GraphPad PRISM software (version 6.01 for Windows, GraphPad Software, San Diego, California USA GraphPad Prism) using unpaired t-test. Data were considered to be statistically significant if p < 0.05 (*), p < 0.01 (**), p < 0.001(***) and p < 0.0001 (****).

[2] = Kinetic stability of ligands in simulated physiological conditions (UV-Vis); assay type: physicochemical; conditions: for Stability: percentage of the residual ligand after 4 h: PBS, pH 7.4, 37 °C in darkness; for Stability ranking (residual ligand after 4 h): rank among the 7 ligands, 1 = most stable
Procedure: The chemical stability of ligands and metal complexes at the M:L 1:L molar ratio at 37 °C in darkness was evaluated by UV−Vis spectroscopy as a change in absorbance in the 250−600 nm range over an overall period of 8 h. Solutions (5.0 × 10^–5 mol L^–1) of the ligands were prepared in 0.1 mol L^–1 phosphate-buffered solution (PBS) at pH 7.4. Spectra were recorded every 30 min. All profiles were linearized as the hyperbolic function defined by Equation (2), which represents an empirical model that describes drug decomposition or release well [42]:(2) t/f%=at+b where f% is the percentage of the residual compound at time t (min) referred to the starting concentration at time zero determined by reading the absorbance at λmax.

[3] = Keto-enol/diketo tautomer amounts by 1H NMR; assay type: physicochemical; conditions: molar percentage, MeOD-d4, 298 K; for KE (%) amount of keto–enol form: for 2 includes KE form of the Z isomer (6%)
Procedure: NMR spectra were recorded by means of a Bruker Biospin FT-NMR AVANCE III HD (600 MHz) spectrometer equipped with a CryoProbe BBO H&F 5 mm in inverse detection. The nominal frequencies were 150.90 MHz for ^13C and 600.13 MHz for ^1H, respectively. For each sample, 1–5 mg were weighed and diluted up to 0.6 mL with a proper solvent in a 5 mm NMR tube; 90° pulse was calibrated for each sample, and standard NMR parameters were used to achieve quantitative results (relaxation delay, 10 s). Proton and carbon chemical shifts are given in parts per million (ppm) versus external TMS and were determined by reference to the solvent residual signals. Typical 2D homo- and heteronuclear techniques were used for assignment, i.e., ^1H,^1H COSY, ^1H,^13C HSQC, ^1H,^13C HMBC. NMR investigations of Ga^3+:L systems were performed in MeOD-d4 by adding small amounts of a Ga(NO3)3 solution (10 μL each) to 1 mM ligand solution (0.6 mL) until reaching the desired metal-to-ligand molar ratio. The complexation reaction is fast, and spectra were registered few minutes after the addition. Two-dimensional ^1H,^13C heteronuclear multiple bond correlation (HMBC) experiments (hmbcgpndqf in Bruker library) were performed via heteronuclear zero and double quantum coherence, optimized on long-range couplings (^3/4JHC = 8 Hz), with no decoupling during acquisition, and gradient pulses were used for selection. The relative percentages of the isomeric forms were estimated on the basis of the NMR data. Particularly, ^1H NMR spectra were acquired in quantitative conditions being D1 (relaxation delay) at least five times the T1 of the slowest relaxing signal of interest. The raw data were Fourier-transformed, and then the processing was performed by zero filling (SI = TD), line broadening (lb 0.3 Hz), accurate phasing and correcting the baseline. The most isolated signals were selected for integration, i.e., the vinyl protons (H-3 and H-4), and an average of the integrated area (A) of H-3 and H-4 was used for relative quantitation, according to the following equation: %Tautomeri=(A(H−3)i+(A(H−4)i)/2/∑i(A(H−3)i+(A(H−4)i)/2×100

[4] = Spectrophotometric pH titrations of ligands (protonation constants, pKa); assay type: physicochemical; conditions: for logβ011 overall protonation constant / logβ012 overall protonation constant / logβ013 overall protonation constant / logβ014 overall protonation constant: HypSpec, spectrophotometric data; for pKa: aqueous solution (methanol stock diluted in water); for prevailing charge form at physiological pH (7.4): pH 7.4, species distribution
Procedure: (§1) UV–visible spectra were recorded with a JASCO V-570 UV/Vis/NIR spectrophotometer at 298 K in the 250–600 nm spectral range employing quartz cells (1 cm optical path). To perform spectrophotometric titrations, ligands (denoted generally as L in the following) were dissolved in methanol to give a mother solution (2.50 mM), that was then diluted in water in order to obtain a final concentration of 50 μM. The metal/ligand (M:L) solutions were obtained by adding appropriate quantities of Ga(NO3)3 as methanol solutions (5–10 mM) in order to obtain the metal-to-ligand 1:1 molar ratio (L = 50 μM and V = 25 mL). For both L and M:L systems, pH (initial value of about 5) was varied by adding small amounts (<1 μL) of concentrated NaOH (4 M) up to ca. pH 11, thus to consider volume variations negligible. To evaluate the complexation ratio, constant additions of the M solution (10 µL each time, M = 10^–2 M) were dropped into the ligand solution (V = 25 mL, L = 50 μM) using a micropipette in order to reach different M:L molar ratios. A constant ionic strength (NaNO3, 0.1 M) was maintained in all experiments. Spectrophotometric investigations of iron(III) systems were performed in the same conditions; the Fe^3+ solution was freshly prepared in methanol starting from Fe(NO3)3·9H2O. The overall protonation constants (logβqr) and the overall stability constants of metal complexes (logβpqr) were evaluated from spectrophotometric data. The stability constants (βpqr), defined by the following equations:(3) pM^m++qL^l^−+rH^+⇌MpLqHr(mp−lq+r) (4) βpqr=[MpLqHr(mp−lq+r)]/[M^m+]^p·[L^l−]^q·[H^+]^r where L is the ligand in the completely dissociated form and H is proton, were refined using least-squares calculation in HypSpec. The results of least-squares calculation include the standard deviations and correlation coefficients of the refined parameters. The quantities are obtained by performing error propagation calculation from the experimental errors onto the parameters. The stability constant refinement furnishes least-squares estimates of the standard deviation, σ, of the stability constant β. The error on logβ is calculated as follows: σ(logβ) = [log(β + σ) − log(β − σ)]/2.

[5] = Spectrophotometric pH-metric titrations of Ga^3+:ligand systems (stability constants, pGa, speciation); assay type: physicochemical; conditions: for logK11 apparent formation constant (Ga^3+, M:L 1:1) / logK12 apparent formation constant (Ga^3+, M:L 1:2) / logK13 apparent formation constant (Ga^3+, M:L 1:3): estimated from logβMLH; for Prevailing Species (pH 5.5) / Prevailing Species (pH 7.4): Ga^3+ complex species; for Prevailing Species (pH 7.4): ** possible formation of gallium hydroxide species; for pGa (−log[Ga^3+]free): [Ga^3+]total = 1 μM, [L]total = 10 μM, pH 7.4, 25 °C
Procedure: as §1
Hydroxide species, such as [Ga(OH)2]^+, were taken into account for calculations. The hydrolysis constants for Ga^3+ are as follows: logβ1,1,0 = −3.93; logβ2,1,0 = −7.73; logβ3,1,0 = −12.38; logβ4,1,0 = −15.96; logβ32,13,0 = −66.3; logβ3,1,0(s) = −3.54 [43]; pGa is defined as (−log[Ga^3+]free) and is calculated at specific conditions (Ga^3+total = 1 μM, Ltotal = 10 μM, pH 7.4, 25 °C). For the calculation of the iron(III) overall stability constants, the presence of [Fe(OH)]^2+, [Fe(OH)2]^+ and [Fe(OH)3] species was taken into account.

[6] = 298 K, calculated from logβ values, * = keto–enol moiety dissociation, read-out: pKa1
[7] = 298 K, calculated from logβ values, * = keto–enol moiety dissociation, read-out: pKa2
[8] = 298 K, calculated from logβ values, * = keto–enol moiety dissociation, read-out: pKa3
[9] = 298 K, calculated from logβ values, read-out: pKa4
[10] = 298 K, calculated from logβ values, * = keto–enol moiety dissociation

Row | Stability: percentage of the residual ligand after 4 h [2] | Stability ranking (residual ligand after 4 h) [2] | KK (%) amount of diketo form [3] | KE (%) amount of keto–enol form [3] | logβ011 overall protonation constant ([4]; 298 K) | pKa [4, 6] | log β 110 overall stability constant (Ga^3+) ([5]; 298 K, HypSpec) | log β 120 overall stability constant (Ga^3+) ([5]; 298 K, HypSpec) | log β 130 overall stability constant (Ga^3+) ([5]; 298 K, HypSpec) | logK11 apparent formation constant (Ga^3+, M:L 1:1) ([5]; 298 K) | logK12 apparent formation constant (Ga^3+, M:L 1:2) ([5]; 298 K) | logK13 apparent formation constant (Ga^3+, M:L 1:3) ([5]; 298 K) | Prevailing Species (pH 5.5) [5] | Prevailing Species (pH 7.4) [5] | pGa (−log[Ga^3+]free) [5] | logβ012 overall protonation constant ([4]; 298 K) | logβ013 overall protonation constant ([4]; 298 K) | logβ014 overall protonation constant ([4]; 298 K) | pKa [4, 7] | pKa [4, 8] | Molecule | other results
1 | 73% | 4 | 75% | 25% | 11.42 (2) | ~5 |  |  |  | 6.67 |  |  |  |  | 14.0 | 21.12 (6) | 29.76 (7) | 34.62 (5) | 8.64 | 9.7 | O=C(O)CCC(C(=O)/C=C/c1ccc(O)cc1)C(=O)/C=C/c1ccc(O)cc1 [Compound 6, (6E)-7-(4-hydroxyphenyl)-4-[(2E)-3-(4-hydroxyphenyl)prop-2-enoyl]-5-oxohept-6-enoic acid] | pKa [4, 9]: 11.4; prevailing charge form at physiological pH (7.4) [4]: negatively charged; log β 112 overall stability constant (Ga^3+) ([5]; 298 K, HypSpec): 27.79 (5); log β 113 overall stability constant (Ga^3+) ([5]; 298 K, HypSpec): 34.09 (5)
2 | 79% | 2 | 75% | 25% | 12.22 (2) | ~5 |  |  |  | 6.68 |  |  | [Ga(H2L)2]^+ | [Ga(H2L)2]^+ ** | 15.3 | 21.61 (5) | 29.98 (4) | 34.92 (9) | 8.37 | 9.39 | COc1cc(/C=C/C(=O)C(CCC(=O)O)C(=O)/C=C/c2ccc(O)c(OC)c2)ccc1O [Compound 7, (6E)-7-(3-methoxy-4-hydroxyphenyl)-4-[(2E)-3-(3-methoxy-4-hydroxyphenyl)prop-2-enoyl]-5-oxohept-6-enoic acid] | pKa [4, 9]: 12.2; prevailing charge form at physiological pH (7.4) [4]: negatively charged; log β 112 overall stability constant (Ga^3+) ([5]; 298 K, HypSpec): 28.29 (5); log β 113 overall stability constant (Ga^3+) ([5]; 298 K, HypSpec): 36.51 (6)

More lines, now with the values behind:

Row | Molecule | Stability: percentage of the residual ligand after 4 h [2] | Stability ranking (residual ligand after 4 h) [2] | KK (%) amount of diketo form [3] | KE (%) amount of keto–enol form [3] | logβ011 overall protonation constant ([4]; 298 K) | pKa [4, 6] | log β 110 overall stability constant (Ga^3+) ([5]; 298 K, HypSpec) | log β 120 overall stability constant (Ga^3+) ([5]; 298 K, HypSpec) | log β 130 overall stability constant (Ga^3+) ([5]; 298 K, HypSpec) | logK11 apparent formation constant (Ga^3+, M:L 1:1) ([5]; 298 K) | logK12 apparent formation constant (Ga^3+, M:L 1:2) ([5]; 298 K) | logK13 apparent formation constant (Ga^3+, M:L 1:3) ([5]; 298 K) | Prevailing Species (pH 5.5) [5] | Prevailing Species (pH 7.4) [5] | pGa (−log[Ga^3+]free) [5] | logβ012 overall protonation constant ([4]; 298 K) | logβ013 overall protonation constant ([4]; 298 K) | logβ014 overall protonation constant ([4]; 298 K) | pKa [4, 7] | pKa [4, 8] | other results
3 | COc1cc(/C=C/C(=O)CC(=O)/C=C/c2ccc(O)c(OC)c2)ccc1O [CUR, Curcumin] |  |  |  |  |  |  |  |  |  |  |  |  |  |  |  |  |  |  |  |  | GI50 [1]: 12.9 µM
4 | COc1cc(/C=C/C(O)=C/C(C)=O)ccc1OCCCBr [Compound 2, (3Z,5E)-6-[4-(3-bromopropoxy)-3-methoxyphenyl]-4-hydroxyhexa-3,5-dien-2-one] | 83% | 1 | 12% | 88 * % | 10.903 (8) | 10.9 | 8.129 (9) | 15.185 (4) | 20.45 (3) | 8.129 (9) | 15.185 | 20.45 | [Ga(L)3] | [Ga(L)3] | 13.1 |  |  |  |  |  | 
5 | (3Z,5E)-4-hydroxy-6-(3-methoxy-4-methylphenyl)hexa-3,5-dien-2-one [Compound 1] | 77% | 3 | 4% | 96% | 10.212 (2) |  | 11.78 (4) | 20.30 (5) | 28.37 (7) | 7.38 (3) | 14.35 (3) | 19.1 (4) | [Ga(HL)3] | [Ga(L)3]^3− | 19.0 | 18.509 (3) |  |  |  |  | pKa1 [4, 10]: 8.297 (5); pKa2 [4, 10]: 10.212 (2) *; log β 111 overall stability constant (Ga^3+) ([5]; 298 K, HypSpec): 17.59 (3); log β 122 overall stability constant (Ga^3+) ([5]; 298 K, HypSpec): 34.77(3); log β 133 overall stability constant (Ga^3+) ([5]; 298 K, HypSpec): 49.7 (4)
